US6759557B2, “Melanin production inhibitors and skincare products containing such inhibitors” (Takasago International Corporation, priority 2001, dated 2004)

How the values were obtained:
melanoma cells B-16 = experiment: Inhibiting effect on melanin synthesis in pigment cells (whiteness of cell residue observed by eye); type: cell-based; set-up: key to whiteness of cells rated by eye (melanin synthesis inhibition): −: same colour as the comparative solvent example (black); +: slight colour difference from the comparative solvent example (black grey); ++: clear colour difference from the comparative solvent example (white grey); +++: no colour in the cells (white); details: 4 days, B-16 melanoma cells
Method: In plastic culture flasks ([…]), 5×10^4 of melanoma cells B-16 were respectively inoculated and cultivated at 37° C. in DMEM culture media each containing 10% of blood serum (Nippon Suisan Co. Ltd) in the presence of 5% of carbon dioxide. After two days of cultivation, test samples diluted with ethanol were added to the culture media, so as to set their concentrations, respectively, at 1.6, 3.1 and 6.3 ppm for the compounds of Formula (1) where X is —CO— or —CHOH—, and at 0.8, 1.6 and 3.1 ppm for the compounds of Formula (1) where X is —CO—CHOH—. The culture media were further cultivated for 4 days.
When the cultivation was terminated, the culture media were removed from the respective flasks and the remaining cells were rinsed with a phosphate buffer solution (PBS hereinafter). The cells in each flask were treated with a culture medium containing trypsin and EDTA (ethylenediaminetetracetic acid) to yield cell suspensions. The latter were subjected to centrifugation, and the cells were recovered.
The obtained cells were once washed with PBS. The residues were observed by eye, and their whiteness was rated as below.

Row | SMILES | whiteness of cells rated by eye (melanin synthesis inhibition) (melanoma cells B-16; 0.8 ppm in culture medium) | whiteness of cells rated by eye (melanin synthesis inhibition) (melanoma cells B-16; 1.6 ppm in culture medium) | whiteness of cells rated by eye (melanin synthesis inhibition) (melanoma cells B-16; 3.1 ppm in culture medium) | melting point [°C] | whiteness of cells rated by eye (melanin synthesis inhibition) (melanoma cells B-16; 6.3 ppm in culture medium)
1 | O=C1CCCCCCCCCCCCCCCCCCCCCCC1O (stereo not shown) [2-hydroxycyclotetracosanone] | ++ | +++ | +++ | 39 to 40 | 
2 | CC1/C=C/CCCCCCCCCCC(=O)CC1 (stereo not shown) [5(E)-4-methylcyclohexadecenone] |  | + | ++ |  | +++
3 | O=C1CCCCCCCCCCCCCC1O (stereo not shown) [2-hydroxycyclopentadecanone, reference compound] |  | − | − |  | +++
4 | OC1CCCCCCCC=CCCCCCCC1 (mixture of isomers) [9(EZ)-cycloheptadecenol] |  | + | ++ |  | +++
5 | OC1CCCC=CCCCCCCCCCC1 (mixture of isomers) [5(EZ)-cyclohexadecenol] |  | + | ++ |  | +++
6 | O=C1CCCCCCCCCCCCCCCC1 [cycloheptadecanone] |  | + | ++ |  | +++
7 | OC1CCCCCCCCCCC1 [cyclododecanol, reference compound] |  |  | − |  | +
8 | O=C1CCCCCCCCCCCCCCC1 [cyclohexadecanone] |  | + | ++ |  | +++
9 | O=C1CCCCCCCCCCCCCCCCC1O (stereo not shown) [2-hydroxycyclooctadecanone] | + | ++ | +++ | 31 to 32 | 
